Experimental findings from patent US20240239753A1, “METHOD FOR CRYSTALLIZATION OF AROMATIC AMINO ACIDS, ENABLING SUSTAINABLE CYCLE OF AMMONIA” (CJ CheilJedang Corporation, priority 2021, published 2024) are described below.

A short description of the data set: Analysis of solubility of L-tryptophan depending on pH of solution. It is filed as physicochemical. The note with it: distilled water/ammonia water mixtures, 30° C., stirring 12 hours or more, supernatant by HPLC; pH of the solution 10 or more (FIG. 2). How it is done: Measurement of solubility of L-tryptophan amino acids was performed in a 1 L jacket reactor made of glass. After mixing distilled water and ammonia water in the 1 L jacket reactor at various ratios, an excess of L-tryptophan crystals was added and they were stirred, thereby preparing a reaction solution comprising L-tryptophan crystals. After that, while maintaining the internal temperature of the reactor at 30° C. constantly using freezing/heating circulation apparatus (model F35, Julabo, Germany), these conditions were applied with stirring for 12 hours or more. Then, when the stirring was stopped and all L-tryptophan crystals were sunk, a part of clear supernatant was transferred to a syringe sampler equipped with a 0.45 μm syringe filter. At this time, the pH of the corresponding solution was measured suing a pH measuring instrument (model S220, Mettler Toledo, US). The concentration of the corresponding sample was measured using HPLC, after diluting with tertiary distilled water using a volumetric flask. The concentration of the supernatant sample was assumed with the solubility, and the change in solubility of L-tryptophan depending on pH of solution was shown in FIG. 2. In other words, the pH of the solution could be confirmed that the solubility of L-tryptophan increased from the time when the pH of the solution was to be 10 or more.

Regarding `N[C@@H](Cc1c[nH]c2ccccc12)C(=O)O` [L-tryptophan], the “change in solubility of L-tryptophan depending on pH of solution” value is “increased”.
